Test results published in ChEMBL document CHEMBL5518170, “Dual target PARP1/EZH2 inhibitors inducing excessive autophagy and producing synthetic lethality for triple-negative breast cancer therapy” (Eur J Med Chem, 2024).
pIC50: −log10 of the molar value.

What was measured:
[1] = system: MDA-MB-231; assay: cells; details: Homo sapiens, MDA-MB-231, 72 h
Description: Cytotoxicity against human MDA-MB-231 cells incubated for 72 hrs by MTT assay

[2] = system: MCF-10A; assay: cells; details: Homo sapiens, 72 h
Description: Cytotoxicity against human MCF-10A cells incubated for 72 hrs by MTT assay

[3] = system: BT-549; assay: cells; details: Homo sapiens, BT-549, 72 h
Description: Cytotoxicity against human BT-549 cells incubated for 72 hrs by MTT assay

[4] = system: MDA-MB-231; assay: cells; details: Homo sapiens, MDA-MB-231, 72 h; remark: listed apart in the source
[5] = system: MCF-10A; assay: cells; details: Homo sapiens, 72 h; remark: listed apart in the source
[6] = system: BT-549; assay: cells; details: Homo sapiens, BT-549, 72 h; remark: listed apart in the source
[7] = system: MDA-MB-231; assay: Synergistic antitumor activity against human MDA-MB-231 cells xenografted in BALB/c mouse assessed as tumor growth inhibition at 50 mg/kg,ip administrated in presence of Niraparib for 21 consecutive days; type: functional; details: read-out: TGI

In the case of `CCNc1cc(-c2ccc(CC(=O)N3CCC(c4nc5c(C(N)=O)cccc5[nH]4)CC3)cc2)cc(C(=O)NCc2c(C)cc(C)[nH]c2=O)c1C`, the pIC50 [1] was < 4.40, the pIC50 [2] was < 4.40 and the pIC50 [3] was < 4.40.

In the case of `CCNc1cc(-c2ccc(CC(=O)NCCc3nc4c(C(N)=O)cccc4[nH]3)cc2)cc(C(=O)NCc2c(C)cc(C)[nH]c2=O)c1C`, the pIC50 [1] was < 4.40, the pIC50 [2] was < 4.40 and the pIC50 [3] was 4.50.

For `CCNc1cc(-c2ccc(CC(=O)NCCCCCc3nc4c(C(N)=O)cccc4[nH]3)cc2)cc(C(=O)NCc2c(C)cc(C)[nH]c2=O)c1C`, the pIC50 [1] was < 4.40, the pIC50 [2] was < 4.40 and the pIC50 [3] was < 4.40.

With `CCNc1cc(-c2ccc(CC(=O)N3CCC[C@H](c4nc5c(C(N)=O)cccc5[nH]4)C3)cc2)cc(C(=O)NCc2c(C)cc(C)[nH]c2=O)c1C` the pIC50 [1] was 4.47, the pIC50 [2] was < 4.40 and the pIC50 [3] was 4.63.

With `CCNc1cc(-c2ccc(CC(=O)NCc3nc4c(C(N)=O)cccc4[nH]3)cc2)cc(C(=O)NCc2c(C)cc(C)[nH]c2=O)c1C` the pIC50 [1] was < 4.40, the pIC50 [2] was < 4.40 and the pIC50 [3] was 4.66.

`CCNc1cc(-c2ccc(CC(=O)NCCCCc3nc4c(C(N)=O)cccc4[nH]3)cc2)cc(C(=O)NCc2c(C)cc(C)[nH]c2=O)c1C` was tested, and the pIC50 [1] was < 4.40, the pIC50 [2] was < 4.40 and the pIC50 [3] was < 4.40.

In the case of `CCNc1cc(-c2ccc(CC(=O)NCCCc3nc4c(C(N)=O)cccc4[nH]3)cc2)cc(C(=O)NCc2c(C)cc(C)[nH]c2=O)c1C`, the pIC50 [1] was < 4.40, the pIC50 [2] was < 4.40 and the pIC50 [3] was 4.43.

`CCNc1cc(-c2ccc(CC(=O)N3CCC(Cc4nc5c(C(N)=O)cccc5[nH]4)CC3)cc2)cc(C(=O)NCc2c(C)cc(C)[nH]c2=O)c1C` was tested, and the pIC50 [1] was < 4.40, the pIC50 [2] was < 4.40 and the pIC50 [3] was < 4.40.

For `CCNc1cc(-c2ccc(CC(=O)N3CC(c4nc5c(C(N)=O)cccc5[nH]4)C3)cc2)cc(C(=O)NCc2c(C)cc(C)[nH]c2=O)c1C`, the pIC50 [1] was < 4.40, the pIC50 [2] was < 4.40 and the pIC50 [3] was < 4.40.

For `CCNc1cc(-c2ccc(CC(=O)Nc3ccc(-c4nc5c(C(N)=O)cccc5[nH]4)cc3)cc2)cc(C(=O)NCc2c(C)cc(C)[nH]c2=O)c1C`, the pIC50 [1] was < 4.40, the pIC50 [2] was < 4.40 and the pIC50 [3] was < 4.40.

`CCn1ccc2c(C(=O)NCc3c(C)cc(C)[nH]c3=O)cc(-c3ccc(-c4nc5c(C(N)=O)cccc5[nH]4)cc3)cc21` was tested, and the pIC50 [1] was < 4.40, the pIC50 [2] was < 4.40 and the pIC50 [3] was < 4.40.

In the case of `CCNc1cc(-c2ccc(CC(=O)N3CC[C@@H](c4nc5c(C(N)=O)cccc5[nH]4)C3)cc2)cc(C(=O)NCc2c(C)cc(C)[nH]c2=O)c1C`, the pIC50 [1] was < 4.40, the pIC50 [2] was < 4.40 and the pIC50 [3] was 4.65.

With `CC[C@H](C)n1cc(C)c2c(C(=O)NCc3c(C)cc(C)[nH]c3=O)cc(-c3ccc(N4CCNCC4)nc3)cc21` [GSK2816126] the pIC50 [4] was 5.20, the pIC50 [5] was < 4.40 and the pIC50 [1] was 4.88. The pIC50 [6] was 5.08, the pIC50 [2] was < 4.40 and the pIC50 [3] was 4.72. The inhibition in vivo at 50 mg/kg [7] was 57.2%.

For `O=C(c1cc(Cc2n[nH]c(=O)c3ccccc23)ccc1F)N1CCN(C(=O)C2CC2)CC1` [OLAPARIB], the pIC50 [1] was 4.45, the pIC50 [2] was < 4.40 and the pIC50 [3] was 4.45.
